The source of these data is patent US20070219186A1, “Pyrazolo[1,5-A]pyrimidine derivatives and methods of use thereof” (priority 2006, published 2007).

By IC50 is commonly meant the concentration at which inhibition is half-maximal.

The experiment addresses T1, human B-Raf (Homo sapiens, UniProt P15056).
T1 construct: Flag; GST; made in house; host or cells: Sf9 insect cells (B-Raf); E. coli (MEK1-GST)
In words: B-Raf Kinase to MEK1 ELISA. The format is biochemical. The following applies: for inhibition at 10 µM: read-out: % Inhib./10 uM. A digest of the protocol: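 Flag/GST-tagged human B-Raf (Sf9, ~20 ng/point) phosphorylates non-active GST-MEK1 (50 nM final) with ATP and MgCl2 in MOPS pH 7.2 buffer, 60 min at RT. Product is captured on anti-GST plates; MEK1 pSer217/221 is read by phospho-antibody plus europium conjugate (DELFIA).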
On the technique in general: ELISA stands for enzyme-linked immunosorbent assay.

[1] abbreviates: median, cpd concentrations from 10 μM to 30 nM in half log dilutions, read-out: Median IC50.

Molecules are shown by their SMILES. Where two headings read alike, the source gives them in different places.

T1 sequence (P15056 whole entry): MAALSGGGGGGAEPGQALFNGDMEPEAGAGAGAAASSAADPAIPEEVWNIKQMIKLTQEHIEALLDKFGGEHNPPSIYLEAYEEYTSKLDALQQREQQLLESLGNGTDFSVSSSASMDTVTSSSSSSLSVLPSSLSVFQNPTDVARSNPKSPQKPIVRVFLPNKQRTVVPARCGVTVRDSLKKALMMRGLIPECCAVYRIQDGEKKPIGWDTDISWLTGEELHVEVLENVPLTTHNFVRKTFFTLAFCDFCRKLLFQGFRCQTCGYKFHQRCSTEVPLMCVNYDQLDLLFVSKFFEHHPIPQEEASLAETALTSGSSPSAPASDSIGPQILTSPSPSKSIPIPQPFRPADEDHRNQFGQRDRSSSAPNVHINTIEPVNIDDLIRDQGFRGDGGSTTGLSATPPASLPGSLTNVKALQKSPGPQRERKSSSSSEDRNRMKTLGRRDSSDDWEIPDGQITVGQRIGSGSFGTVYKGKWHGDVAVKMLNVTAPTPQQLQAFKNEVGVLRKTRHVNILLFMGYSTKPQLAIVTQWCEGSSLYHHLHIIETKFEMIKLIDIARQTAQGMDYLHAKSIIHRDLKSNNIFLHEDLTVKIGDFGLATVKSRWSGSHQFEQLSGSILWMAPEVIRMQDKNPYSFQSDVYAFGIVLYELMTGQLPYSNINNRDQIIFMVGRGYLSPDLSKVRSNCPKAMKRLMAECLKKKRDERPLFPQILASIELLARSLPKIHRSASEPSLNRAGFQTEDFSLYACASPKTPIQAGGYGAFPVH

As to `CCOC(=O)c1cnn2c(-c3cccc(NC(=O)CC(C)CC(C)(C)C)c3)ccnc12` (stereo not shown) [Example 226, ethyl7-{3-[(3,5,5-trimethylhexanoyl)amino]phenyl}pyrazolo[1,5-a]pyrimidine-3-carboxylate], the inhibition at 10 µM turned out to be 43%. In addition, under setting [1], the IC50 is over 10000 nM.

Take `O=C(Nc1cccc(-c2ccnc3cc(-c4ccnc(NCCCN5CCCC5=O)c4)nn23)c1)c1cccc(C(F)(F)F)c1` [Example 261, N-{3-[2-(2-{[3-(2-oxopyrrolidin-1-yl)propyl]amino}pyridin-4-yl)pyrazolo[1,5-a]pyrimidin-7-yl]phenyl}-3-(trifluoromethyl)benzamide]: it took 113 nM to reach half-maximal inhibition (IC50) and the inhibition at 10 µM amounted to 94%.

With `CN(C)CCCNc1cc(-c2cc3nccc(-c4cccc(NC(=O)c5cccc(C(F)(F)F)c5)c4)n3n2)ccn1` [Example 257, N-{3-[2-(2-{[3-(dimethylamino)propyl]amino}pyridin-4-yl)pyrazolo[1,5-a]pyrimidin-7-yl]phenyl}-3-(trifluoromethyl)benzamide], the inhibition at 10 µM was 97%. For the same compound, under setting [1], the half-maximal inhibitory concentration (IC50) amounted to 74.5 nM.

Turning to `O=C(Nc1cccc(-c2ccnc3c(C#CCCCN4CCOCC4)cnn23)c1)c1cccc(C(F)(F)F)c1` [Example 282, N-{3-[3-(5-morpholin-4-ylpent-1-yn-1-yl)pyrazolo[1,5-a]pyrimidin-7-yl]phenyl}-3-(trifluoromethyl)benzamide], half-maximal inhibition (IC50) was put at 551 nM and the inhibition at 10 µM turned out to be 79%.

Consider `CC(C)(C)OC(=O)n1cc(-c2cnn3c(-c4cccc(NC(=O)c5cccc(C(F)(F)F)c5)c4)ccnc23)cn1` [Example 276, tert-butyl 4-[7-(3-{[3-(trifluoromethyl)benzoyl]amino}phenyl)pyrazolo[1,5-a]pyrimidin-3-yl]-1H-pyrazole-1-carboxylate], for which the inhibition at 10 µM stood at 58%. Besides, under setting [1], the IC50 is 2060 nM.

Turning to `NC1CCN(c2cc3nccc(-c4cccc(NC(=O)c5cccc(C(F)(F)F)c5)c4)n3n2)C1` (stereo not shown) [Example 213, N-{3-[2-(3-aminopyrrolidin-1-yl)pyrazolo[1,5-a]pyrimidin-7-yl]phenyl}-3-(trifluoromethyl)benzamide], the inhibition at 10 µM was found to be 40%. The IC50 under setting [1] is over 10000 nM.

For `O=C(Cc1c[nH]cn1)Nc1ccc(-c2cnn3c(-c4cccc(NC(=O)c5cccc(C(F)(F)F)c5)c4)ccnc23)cc1` [Example 232, N-[3-(3-{4-[(1H-imidazol-4-ylacetyl)amino]phenyl}pyrazolo[1,5-a]pyrimidin-7-yl)phenyl]-3-(trifluoromethyl)benzamide], the inhibition at 10 µM is 99%. Also, under setting [1], the IC50 is 174 nM.

Consider `COCC(=O)Nc1cccc(-c2cnn3c(-c4cccc(NC(=O)c5cccc(C(F)(F)F)c5)c4)ccnc23)c1` [Example 252, N-[3-(3-{3-[(methoxyacetyl)amino]phenyl}pyrazolo[1,5-a]pyrimidin-7-yl)phenyl]-3-(trifluoromethyl)benzamide], for which the inhibition at 10 µM was 79%. The IC50 under setting [1] amounted to 82 nM.

On to `O=C(Nc1cccc(-c2ccnc3c(-c4ccncc4)cnn23)c1)c1ccc(Cl)c(C(F)(F)F)c1` [Example 191, 4-chloro-N-[3-(3-pyridin-4-ylpyrazolo[1,5-a]pyrimidin-7-yl)phenyl]-3-(trifluoromethyl)benzamide], for which the inhibition at 10 µM was 60%. Under setting [1], the IC50 was 1920 nM.

In turn, `O=C(Nc1cccc(-c2ccnc3cc(-c4ccncc4)nn23)c1)c1cccc(Cl)c1` [Example 150, 3-chloro-N-[3-(2-pyridin-4-ylpyrazolo[1,5-a]pyrimidin-7-yl)phenyl]benzamide] gave an IC50 of 1100 nM.

As to `CCOC(=O)c1cnn2c(-c3cccc(NC(=O)Nc4c(C)cc(C)cc4C)c3)ccnc12` [Example 22, ethyl 7-(3-{[(mesitylamino)carbonyl]amino}phenyl)pyrazolo[1,5-a]pyrimidine-3-carboxylate], the inhibition at 10 µM was determined as 34%. Further, the concentration for half-maximal inhibition (IC50) under setting [1] is over 10000 nM.

As for `CCOC(=O)c1cnn2c(-c3cccc(NC(=O)Nc4ccc(Cl)cc4C(F)(F)F)c3)ccnc12` [Example 43, ethyl 7-{3-[({[4-chloro-2-(trifluoromethyl)phenyl]amino}carbonyl)amino]phenyl}pyrazolo[1,5-a]pyrimidine-3-carboxylate], the inhibition at 10 µM came to 9%. Besides, under setting [1], the IC50 is over 10000 nM.

For the compound `COCCOCC(=O)Nc1ccc(-c2cnn3c(-c4cccc(NC(=O)c5cccc(C(F)(F)F)c5)c4)ccnc23)cc1` [Example 235, N-{3-[3-(4-{[(2-methoxyethoxy)acetyl]amino}phenyl)pyrazolo[1,5-a]pyrimidin-7-yl]phenyl}-3-(trifluoromethyl)benzamide], the inhibition at 10 µM was determined as 84%. For the same compound, the IC50 under setting [1] came to 169 nM.

With `O=C(Nc1cccc(-c2ccnc3c(C(=O)OCC(F)(F)F)cnn23)c1)c1cccc(C(F)(F)F)c1` [Example 125, 2,2,2-trifluoroethyl 7-(3-{[3-(trifluoromethyl)benzoyl]amino}phenyl)pyrazolo[1,5-a]pyrimidine-3-carboxylate], the inhibition at 10 µM amounted to 67%. Further, the IC50 under setting [1] worked out at 900 nM.

Take `CCOC(=O)c1cnn2c(-c3cccc(NC(=O)Nc4nc5ccc(Cl)cc5s4)c3)ccnc12` [Example 246, ethyl7-[3-({[(6-chloro-1,3-benzothiazol-2-yl)amino]carbonyl}amino)phenyl]pyrazolo[1,5-a]pyrimidine-3-carboxylate]: the inhibition at 10 µM amounted to 34%. Besides, under setting [1], the IC50 is over 10000 nM.

As to `O=C(Nc1cccc(-c2ccnc3c(Br)cnn23)c1)Nc1ccc(F)c(C(F)(F)F)c1` [Example 167, N-[3-(3-bromopyrazolo[1,5-a]pyrimidin-7-yl)phenyl]-N′-[4-fluoro-3-(trifluoromethyl)phenyl]urea], the inhibition at 10 µM was determined as 59%. Under setting [1], the concentration for half-maximal inhibition (IC50) was determined as 4990 nM.

On to `O=C(Nc1ccc(F)c(-c2ccnc3cc(-c4ccncc4)nn23)c1)c1cccc(C(F)(F)F)c1` [Example 317, N-[4-fluoro-3-(2-pyridin-4-ylpyrazolo[1,5-a]pyrimidin-7-yl)phenyl]-3-(trifluoromethyl)benzamide], for which the inhibition at 10 µM is 100%. The IC50 under setting [1] worked out at 42.3 nM.

As for `CCOC(=O)c1cnn2c(-c3cccc(NC(=O)Nc4ccc(C(F)(F)F)cc4)c3)ccnc12` [Example 35, ethyl 7-{3-[({[4-(trifluoromethyl)phenyl]amino}carbonyl)amino]phenyl}pyrazolo[1,5-a]pyrimidine-3-carboxylate], the inhibition at 10 µM stood at 71%. Moreover, the IC50 under setting [1] amounted to 3100 nM.

On to `Cc1ccc(C(=O)Nc2cccc(-c3ccnc4cc(N5CCOCC5)nn34)c2)cc1C(F)(F)F` [Example 194, 4-methyl-N-[3-(2-morpholin-4-ylpyrazolo[1,5-a]pyrimidin-7-yl)phenyl]-3-(trifluoromethyl)benzamide], for which the inhibition at 10 µM stood at 96%. For the same compound, under setting [1], the IC50 worked out at 110 nM.

For the compound `COc1ccc(C(=O)Nc2cccc(-c3ccnc4c(-c5cccnc5)cnn34)c2)cc1C(F)(F)F` [Example 170, 4-methoxy-N-[3-(3-pyridin-3-ylpyrazolo[1,5-a]pyrimidin-7-yl)phenyl]-3-(trifluoromethyl)benzamide], 140 nM corresponded to half-maximal inhibition (IC50) and the inhibition at 10 µM worked out at 96%.

As to `COCCC(=O)Nc1ccc(-c2cnn3c(-c4cccc(NC(=O)c5cccc(C(F)(F)F)c5)c4)ccnc23)cc1` [Example 231, N-[3-(3-{4-[(3-methoxypropanoyl)amino]phenyl}pyrazolo[1,5-a]pyrimidin-7-yl)phenyl]-3-(trifluoromethyl)benzamide], the inhibition at 10 µM was 80%. Moreover, the IC50 under setting [1] turned out to be 246 nM.

On to `O=C(Nc1cccc(-c2ccnc3c(-c4cccnc4)cnn23)c1)c1ccc(Cl)c(C(F)(F)F)c1` [Example 172, 4-chloro-N-[3-(3-pyridin-3-ylpyrazolo[1,5-a]pyrimidin-7-yl)phenyl]-3-(trifluoromethyl)benzamide], for which the inhibition at 10 µM was 81%. In addition, the IC50 under setting [1] worked out at 1010 nM.

With `CCOC(=O)c1cnn2c(-c3cccc(NC(=O)Nc4cc(C(F)(F)F)cc(C(F)(F)F)c4)c3)ccnc12` [Example 16, ethyl 7-{3-[({[3,5-bis(trifluoromethyl)phenyl]amino}carbonyl)amino]phenyl}pyrazolo[1,5-a]pyrimidine-3-carboxylate], the inhibition at 10 µM turned out to be 31%. The IC50 under setting [1] stood at 3780 nM.

The compound `O=C(Nc1cccc(-c2ccnc3c(-c4cnn(CCN5CCCC5)c4)cnn23)c1)c1cccc(C(F)(F)F)c1` [Example 307, N-(3-{3-[1-(2-pyrrolidin-1-ylethyl)-1H-pyrazol-4-yl]pyrazolo[1,5-a]pyrimidin-7-yl}phenyl)-3-(trifluoromethyl)benzamide] had an IC50 of 393 nM.

`CCOC(=O)c1cnn2c(-c3cc(NC(=O)c4cccc(C(F)(F)F)c4)ccc3F)ccnc12` [Example 91, ethyl 7-(2-fluoro-5-{[3-(trifluoromethyl)benzoyl]amino}phenyl)pyrazolo[1,5-a]pyrimidine-3-carboxylate]: the inhibition at 10 µM worked out at 94%. The IC50 under setting [1] came out at 112 nM.

`O=C(Nc1cccc(-c2ccnc3cc(-c4ccnc(NCCCN5CCOCC5)c4)nn23)c1)c1cccc(C(F)(F)F)c1` [Example 258, N-[3-(2-{2-[(3-morpholin-4-ylpropyl)amino]pyridin-4-yl}pyrazolo[1,5-a]pyrimidin-7-yl)phenyl]-3-(trifluoromethyl)benzamide] had an IC50 of 134 nM. For the same compound, for the setting “single point assay, 10 uM”, the “% Inhib./10 uM” value amounted to 95%.

Turning to `O=C(Nc1cccc(-c2ccnc3c(C(=O)Oc4cccnc4)cnn23)c1)c1cccc(C(F)(F)F)c1` [Example 126, pyridin-3-yl 7-(3-{[3-(trifluoromethyl)benzoyl]amino}phenyl)pyrazolo[1,5-a]pyrimidine-3-carboxylate], the inhibition at 10 µM turned out to be 17%. In addition, the half-inhibitory concentration (IC50) under setting [1] is over 10000 nM.
